Experimental data from paper PMC9354638, “Targeting p21-activated kinase 4 (PAK4) with pyrazolo[3,4-d]pyrimidine derivative SPA7012 attenuates hepatic ischaemia-reperfusion injury in mice” (Journal of Enzyme Inhibition and Medicinal Chemistry, 2022).

What was measured:
[1] = biological target: T1, PAK5 (Homo sapiens, UniProt Q9P286); assay: HotSpot kinase assay, PAK subtype selectivity; type: biochemical
T1 construct: purchased Reaction Biology Corporation (Malvern, PA, USA)
Procedure: (§1) To examine the enzyme activity, HotSpot kinase assay was performed at Reaction Biology Corporation (Malvern, PA, USA). The kinase and substrate pairs were prepared in reaction buffer: 20 mM HEPES at pH 7.5, 10 mM MgCl2, 1 mM EGTA, 0.02% Brij 35, 0.02 mg/mL BSA, 0.1 mM Na3VO4, 2 mM DTT, and 1% DMSO. Compounds were added into the kinase reaction mixture and incubated for 20 min. Then, ^32 P-ATP was introduced to the mixture to initiate the reaction carried out at 10 μM of ATP concentration. After 2 h at room temperature, the mixture was spotted onto P81 ion exchange paper and kinase activity was then evaluated utilising the filter-binding method. Compounds were tested for single dose enzyme inhibition at a concentration of 20 μM. For the control compound, staurosporine was tested in a 10-dose IC50 mode. To determine the IC50 value, the compounds were tested for 10-doses with 3-fold serial dilution starting at 100 μM.
(§2) Synthesised compounds were evaluated for their in vitro PAK4 enzyme inhibitory activities. In vitro kinase assays were performed using HotSpot kinase assays for relative enzyme inhibitory activity at a single concentration (20 μM) and IC50 assessment at an ATP concentration of 10 μM (Figure 1(B)). […] For the allosteric pocket binder, cyclohexyl group (SPA7012) was preferable to the smaller dimethyl (SPA7011) or hydroxymethyl group (SPA7013), and the aromatic ring (SPA7014) reduced activity compared to the saturated ring (SPA7012). In vitro enzyme IC50 values appeared in the order of SPA7012, SPA7017, and SPA7016. […] Molecular docking analysis was performed on the human PAK4 catalytic domain structure complexed with GNE-2861 (PDB code: 4O0V). The binding pose of SPA7012 overlapped well with the crystal structure of GNE-2861, with the allosteric binder properly positioned in the specific back pocket. The oxygen atom in the tertiary alcohol of the hydrophobic allosteric binder formed hydrogen bonds with the backbone of Phe459 and the side chain of Glu366 (Figure 1(D)). The amine group and nitrogen atom in the pyrazolo[3,4-d]pyrimidine core scaffold also formed hydrogen bonds with Lue398 at the hinge region. Finally, SPA7012 was decided as a lead compound for further examination with satisfactory potency and subtype selectivity.

[2] = biological target: T2, PAK3 (Homo sapiens, UniProt O75914); assay: HotSpot kinase assay, PAK subtype selectivity; type: biochemical; conditions: relative percentage inhibition at 20 μM with staurosporine
T2 construct: purchased Reaction Biology Corporation (Malvern, PA, USA)
Procedure: as §1, §2

[3] = biological target: T3, PAK2 (Homo sapiens, UniProt Q13177); assay: HotSpot kinase assay, PAK subtype selectivity; type: biochemical; conditions: relative percentage inhibition at 20 μM with staurosporine
T3 construct: purchased Reaction Biology Corporation (Malvern, PA, USA)
Procedure: as §1, §2

[4] = biological target: T4, PAK6 (Homo sapiens, UniProt Q9NQU5); assay: HotSpot kinase assay, PAK subtype selectivity; type: biochemical; conditions: relative percentage inhibition at 20 μM with staurosporine
T4 construct: purchased Reaction Biology Corporation (Malvern, PA, USA)
Procedure: as §1, §2

[5] = biological target: T5, PAK1 (Homo sapiens, UniProt Q13153); assay: HotSpot kinase assay, PAK subtype selectivity; type: biochemical; conditions: relative percentage inhibition at 20 μM with staurosporine
T5 construct: purchased Reaction Biology Corporation (Malvern, PA, USA)
Procedure: as §1, §2

[6] = test system: PAK4-mediated phosphorylation of Nrf2; assay: Co-IP analysis of PAK4-mediated Nrf2 phosphorylation in HEK293T cells; type: cell-based, human; conditions: HEK293T cells overexpressing Nrf2 and PAK4, 24 h transfection
Procedure: The human embryonic kidney cell line HEK293T was obtained from the American Type Culture Collection (Manassas, VA, USA). For the Nrf2 reporter gene assay, 1 μg of a plasmid containing a promoter with an ARE driving luciferase expression was used. Exogenous proteins were expressed by transfecting HEK293T cells with 1 μg of Nrf2 and PAK4 with Lipofectamine 3000 (Invitrogen, Carlsbad, CA, USA). Luciferase activity was measured using a Dual-Luciferase Reporter Assay (Promega, Madison, WI, USA) by Lumat LB 9507 (Berthold, Bad Wildbad, Germany).
Nuclear and cytoplasmic fractions were prepared using the NE-PER Nuclear and Cytoplasmic Extraction kit (Thermo Fisher Scientific, Waltham, MA, USA). Tissue homogenates or cell lysates (15 μg) were separated by 6–14% SDS-PAGE and transferred to PVDF membranes. […] Immunoreactive bands were detected with a Las-4000 imager (GE Healthcare Life Science, Pittsburgh, PA, USA).

T1 sequence (Q9P286 whole entry): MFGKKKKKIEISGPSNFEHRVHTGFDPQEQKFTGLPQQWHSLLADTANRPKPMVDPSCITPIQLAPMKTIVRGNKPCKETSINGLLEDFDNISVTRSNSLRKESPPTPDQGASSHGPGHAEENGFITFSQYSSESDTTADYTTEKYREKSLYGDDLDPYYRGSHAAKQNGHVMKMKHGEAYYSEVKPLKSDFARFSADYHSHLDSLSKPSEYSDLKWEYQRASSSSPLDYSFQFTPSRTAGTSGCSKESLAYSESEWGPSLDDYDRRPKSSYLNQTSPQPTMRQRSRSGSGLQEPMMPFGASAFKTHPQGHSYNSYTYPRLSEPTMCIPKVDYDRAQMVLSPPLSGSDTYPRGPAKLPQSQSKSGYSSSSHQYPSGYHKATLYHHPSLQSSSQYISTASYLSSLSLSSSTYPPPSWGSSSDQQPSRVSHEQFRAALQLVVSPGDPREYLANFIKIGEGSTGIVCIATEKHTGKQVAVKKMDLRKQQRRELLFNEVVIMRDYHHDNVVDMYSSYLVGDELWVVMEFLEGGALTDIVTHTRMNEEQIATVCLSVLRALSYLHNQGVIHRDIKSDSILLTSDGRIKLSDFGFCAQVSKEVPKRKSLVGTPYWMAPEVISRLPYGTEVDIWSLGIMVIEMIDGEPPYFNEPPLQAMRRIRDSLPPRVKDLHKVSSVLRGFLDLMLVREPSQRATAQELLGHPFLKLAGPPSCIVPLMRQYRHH
T4 sequence (Q9NQU5 whole entry): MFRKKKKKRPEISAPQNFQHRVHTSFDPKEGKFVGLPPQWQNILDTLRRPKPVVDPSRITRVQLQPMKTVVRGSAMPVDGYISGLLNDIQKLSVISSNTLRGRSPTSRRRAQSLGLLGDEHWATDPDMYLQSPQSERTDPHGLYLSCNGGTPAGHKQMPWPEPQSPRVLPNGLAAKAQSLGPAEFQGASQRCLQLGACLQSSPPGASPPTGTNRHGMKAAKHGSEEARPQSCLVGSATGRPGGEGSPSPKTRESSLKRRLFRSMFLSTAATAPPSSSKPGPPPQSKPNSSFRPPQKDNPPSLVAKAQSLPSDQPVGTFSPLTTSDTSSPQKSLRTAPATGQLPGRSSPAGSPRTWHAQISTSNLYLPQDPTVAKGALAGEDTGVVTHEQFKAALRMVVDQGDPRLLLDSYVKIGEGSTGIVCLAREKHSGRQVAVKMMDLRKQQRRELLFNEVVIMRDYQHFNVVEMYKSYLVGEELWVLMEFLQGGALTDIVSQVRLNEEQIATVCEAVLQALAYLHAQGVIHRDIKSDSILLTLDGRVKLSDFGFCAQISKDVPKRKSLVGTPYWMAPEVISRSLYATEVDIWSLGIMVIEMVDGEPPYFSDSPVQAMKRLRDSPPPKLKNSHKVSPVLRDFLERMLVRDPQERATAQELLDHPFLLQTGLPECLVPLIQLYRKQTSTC
T3 sequence (Q13177 whole entry): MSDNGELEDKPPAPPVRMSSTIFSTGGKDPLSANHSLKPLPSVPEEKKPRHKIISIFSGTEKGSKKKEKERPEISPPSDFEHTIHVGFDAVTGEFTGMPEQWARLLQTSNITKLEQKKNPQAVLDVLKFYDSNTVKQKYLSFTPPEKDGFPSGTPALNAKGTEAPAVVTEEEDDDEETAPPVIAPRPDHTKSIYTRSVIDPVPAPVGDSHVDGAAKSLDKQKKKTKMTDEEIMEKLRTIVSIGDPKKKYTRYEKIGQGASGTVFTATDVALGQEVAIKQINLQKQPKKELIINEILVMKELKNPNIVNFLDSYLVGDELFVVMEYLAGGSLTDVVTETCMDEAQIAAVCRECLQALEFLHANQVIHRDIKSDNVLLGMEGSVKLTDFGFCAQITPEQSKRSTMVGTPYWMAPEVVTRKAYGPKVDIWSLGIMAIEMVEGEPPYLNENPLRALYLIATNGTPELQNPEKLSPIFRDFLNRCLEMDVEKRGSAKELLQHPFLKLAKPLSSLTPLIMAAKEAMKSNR
T2 sequence (O75914 whole entry): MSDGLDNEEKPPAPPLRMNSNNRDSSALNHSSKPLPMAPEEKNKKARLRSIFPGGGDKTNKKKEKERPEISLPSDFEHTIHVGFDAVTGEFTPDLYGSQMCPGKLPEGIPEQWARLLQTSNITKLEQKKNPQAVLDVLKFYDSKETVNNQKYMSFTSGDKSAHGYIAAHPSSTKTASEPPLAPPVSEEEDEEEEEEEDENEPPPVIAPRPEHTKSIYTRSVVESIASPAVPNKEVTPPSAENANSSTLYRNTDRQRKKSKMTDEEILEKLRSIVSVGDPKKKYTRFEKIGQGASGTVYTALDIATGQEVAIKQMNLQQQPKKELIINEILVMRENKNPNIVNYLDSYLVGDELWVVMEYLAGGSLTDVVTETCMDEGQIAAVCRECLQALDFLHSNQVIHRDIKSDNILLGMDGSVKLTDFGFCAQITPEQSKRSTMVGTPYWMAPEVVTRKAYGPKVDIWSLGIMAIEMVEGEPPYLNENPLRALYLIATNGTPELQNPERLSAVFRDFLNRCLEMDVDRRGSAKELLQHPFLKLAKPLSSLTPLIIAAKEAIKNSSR
T5 sequence (Q13153 whole entry): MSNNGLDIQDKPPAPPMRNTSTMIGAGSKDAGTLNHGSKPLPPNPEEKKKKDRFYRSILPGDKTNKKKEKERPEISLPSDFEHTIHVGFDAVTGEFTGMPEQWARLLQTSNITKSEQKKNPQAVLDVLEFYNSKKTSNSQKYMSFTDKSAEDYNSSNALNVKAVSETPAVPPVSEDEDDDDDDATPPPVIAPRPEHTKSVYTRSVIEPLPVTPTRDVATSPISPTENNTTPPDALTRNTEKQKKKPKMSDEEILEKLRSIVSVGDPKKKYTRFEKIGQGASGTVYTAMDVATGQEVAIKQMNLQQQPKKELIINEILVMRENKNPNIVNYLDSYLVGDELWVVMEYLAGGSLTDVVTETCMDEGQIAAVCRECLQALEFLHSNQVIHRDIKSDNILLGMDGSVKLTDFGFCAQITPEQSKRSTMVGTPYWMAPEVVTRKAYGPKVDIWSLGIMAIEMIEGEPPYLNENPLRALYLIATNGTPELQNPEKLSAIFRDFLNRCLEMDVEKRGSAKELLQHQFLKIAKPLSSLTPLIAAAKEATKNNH

IC50 ([1]; HotSpot kinase assay): > 100 µM
PAK5 % inhibitory activity ([1]; relative percentage inhibition at 20 μM with staurosporine): 52%
PAK3 % inhibitory activity [2]: 5%
PAK2 % inhibitory activity [3]: 36%
PAK6 % inhibitory activity [4]: 36%
PAK1 % inhibitory activity [5]: 16%
Structure (SMILES): Cc1nn(-c2cccc(C#CC3(O)CCCCC3)c2)c2ncnc(N)c12 [Compound 14b, 3-(4-Amino-3-methylpyrazolo[3,4-d]pyrimidin-1-yl)phenylethynylcyclohexan-1-ol]
PAK4-mediated phosphorylation of Nrf2 at threonine residue [6]: effectively inhibited
